Data set [1] can be described thus: Dispersability of diarylethene compounds in polymer solution (photochromic thin film composition). More on the design: key: ◯ = clear solution at RT; Δ = medium solubility; X = insoluble, phase separation and unclear solution. The conditions noted are these: 10 wt. % diarylethene, chloroform + trichloroethylene, room temperature. In kind it is physicochemical. The source says:
Solubilities of diarylethene compounds of the present invention and known diarylethene compounds were compared by dispersing in polycarbonate (PC) solution or fluorinated polyethylene.
Compared diarylethene compounds are 1-(6′-(5-phenylisoxazol) 2′-methylbenzo[b]thiophen-3′-yl)-2-(2″-methylbenzo[b]thiophen-3′-yl)hexafluorocyclopentene (PIMBTF6) prepared in Example 4 and 1,2-bis(2-methylbenzo[b]thiophen-3′-yl)hexafluorocyclopentene (BTF6) and 1-(6′-acetyl-2′-methylbenzo[b]thiophen-3′-yl)-2-(2″-methylbenzo[b]thiophen-3′-yl)hexafluorocyclopentene (AMBTF6) which are disclosed. Each thin film composition was prepared by dissolving 0.03 g (10 wt. %) of diarylethene compound and 0.27 g (90 wt. %) of polycarbonate (PC) or fluorinated polyethylene in a mixture of 1.2 g of chloroform and 1.2 g of trichloroethylene and stirring at room temperature for 6 hrs.

A short description of data set [2]: Dispersability of diarylethene compounds in fluorinated diacrylate monomer (TFBDA) or THF. In kind it is physicochemical. Also noted: key: ◯ = clear solution at RT; Δ = medium solubility; X = insoluble, phase separation and unclear solution. The note with it: room temperature. As for the experimental part:
Solubilities of diarylethene compounds of the present invention and known diarylethene compounds were compared by dispersing in fluorinated diacrylate monomer (TFBDA) or THF.
The same diarylethene compounds used in Examples 6-7 and Comparative Examples 1-4 are used to obtain the desired composition. Each thin film composition was prepared by dissolving 0.01 g (10 wt. %) of diarylethene compound and 0.002 g (2 wt. %) of 1-hydroxycyclohexyl phenyl ketone as photopolymerization initiator in 0.088 g (88 wt. %) of TFBDA and stirring at room temperature for 30 min.

The mark [3] stands for this setting: 90 wt. % fluorinated polyethylene (Xeonex 480).

Consider five molecules from patent publication US6846934B2, “Photochromic diarylethene substituted with isoxazole group” (Korea Research Institute of Chemical Technology, priority 2001, dated 2005).

Molecules are shown by their SMILES.

For the molecule `CC(=O)c1ccc2c(C3=C(c4c(C)sc5ccccc45)C(F)(F)C(F)(F)C3(F)F)c(C)sc2c1` [AMBTF6, 1-(6′-acetyl-2′-methylbenzo[b]thiophen-3′-yl)-2-(2″-methylbenzo[b]thiophen-3′-yl)hexafluorocyclopentene], the Dispersability entry in data set [1] (setting [3]) is “X”; in data set [1] (90 wt. % polycarbonate (PC)) it was “X”; in data set [2] (10 wt. % diarylethene in TFBDA) it was “Δ”; in data set [2] (solvent THF), “◯”.
As to `Cc1sc2ccccc2c1C1=C(c2c(C)sc3ccccc23)C(F)(F)C(F)(F)C1(F)F` [BTF6, 1,2-bis(2-methylbenzo[b]thiophen-3′-yl)hexafluorocyclopentene], the Dispersability entry in data set [1] (setting [3]) was “X”; in data set [1] (90 wt. % polycarbonate (PC)), “◯”; in data set [2] (10 wt. % diarylethene in TFBDA), “X”.
In the case of `Cc1sc2cc(-c3cc(-c4ccccc4)on3)ccc2c1C1=C(c2c(C)sc3cc(-c4cc(-c5ccccc5)on4)ccc23)C(F)(F)C(F)(F)C1(F)F` [DPIMBTF6, di(6′-phenylisoxazol-2′-methylbenzo[b]thiophen-3′-yl)hexafluorocyclopentene], the Dispersability result in data set [2] (10 wt. % diarylethene in TFBDA) is given as “◯”.
With `Cc1sc2ccccc2c1C1=C(c2c(C)sc3cc(-c4cc(CO)on4)ccc23)C(F)(F)C(F)(F)C1(F)F` [IMBTF6, 1-(6′-(5-hydroxymethylisoxazol)-2′-methylbenzo[b]thiophen-3′-yl)-2-(2″-methylbenzo[b]thiophen-3′-yl)hexafluorocyclopentene], the results for the Dispersability result in data set [2] (10 wt. % diarylethene in TFBDA) and in data set [2] (solvent THF) were “X” and “◯”, respectively.
As for `Cc1sc2ccccc2c1C1=C(c2c(C)sc3cc(-c4cc(-c5ccccc5)on4)ccc23)C(F)(F)C(F)(F)C1(F)F` [PIMBTF6, 1-(6′-(5-phenylisoxazol)-2′-methylbenzo[b]thiophen-3′-yl)-2-(2″-methylbenzo[b]thiophen-3′-yl)hexafluorocyclopentene], the Dispersability result in data set [1] (setting [3]) is “Δ”; in data set [1] (90 wt. % polycarbonate (PC)) it was “◯”; in data set [2] (10 wt. % diarylethene in TFBDA) it was “◯”; in data set [2] (solvent THF), “◯”.
